Key:
[1] = molecular target: T1, Voltage-gated inwardly rectifying potassium channel KCNH2 (Homo sapiens, UniProt Q12809)
[2] = molecular target: T1, Voltage-gated inwardly rectifying potassium channel KCNH2; remark: listed apart in the source
Kv11.1 (KCNH2, hERG) [3] = molecular target: T2, Kv11.1 (KCNH2, hERG) (Homo sapiens, UniProt Q12809); assay: in vitro
Kv11.1 (KCNH2, hERG) [4] = molecular target: T2, Kv11.1 (KCNH2, hERG); assay: in vitro; remark: listed apart in the source
Kv11.1 (KCNH2, hERG) [5] = molecular target: T2, Kv11.1 (KCNH2, hERG); assay: in vitro; remark: listed apart in the source
[6] = molecular target: T1, Voltage-gated inwardly rectifying potassium channel KCNH2; remark: listed apart in the source
Description: Inhibition of human Kv11.1 expressed in HEK293 cells assessed as inhibition of channel tail current at holding potential -80 mV by whole cell voltage clamp assay

T1 sequence (Q12809 whole entry): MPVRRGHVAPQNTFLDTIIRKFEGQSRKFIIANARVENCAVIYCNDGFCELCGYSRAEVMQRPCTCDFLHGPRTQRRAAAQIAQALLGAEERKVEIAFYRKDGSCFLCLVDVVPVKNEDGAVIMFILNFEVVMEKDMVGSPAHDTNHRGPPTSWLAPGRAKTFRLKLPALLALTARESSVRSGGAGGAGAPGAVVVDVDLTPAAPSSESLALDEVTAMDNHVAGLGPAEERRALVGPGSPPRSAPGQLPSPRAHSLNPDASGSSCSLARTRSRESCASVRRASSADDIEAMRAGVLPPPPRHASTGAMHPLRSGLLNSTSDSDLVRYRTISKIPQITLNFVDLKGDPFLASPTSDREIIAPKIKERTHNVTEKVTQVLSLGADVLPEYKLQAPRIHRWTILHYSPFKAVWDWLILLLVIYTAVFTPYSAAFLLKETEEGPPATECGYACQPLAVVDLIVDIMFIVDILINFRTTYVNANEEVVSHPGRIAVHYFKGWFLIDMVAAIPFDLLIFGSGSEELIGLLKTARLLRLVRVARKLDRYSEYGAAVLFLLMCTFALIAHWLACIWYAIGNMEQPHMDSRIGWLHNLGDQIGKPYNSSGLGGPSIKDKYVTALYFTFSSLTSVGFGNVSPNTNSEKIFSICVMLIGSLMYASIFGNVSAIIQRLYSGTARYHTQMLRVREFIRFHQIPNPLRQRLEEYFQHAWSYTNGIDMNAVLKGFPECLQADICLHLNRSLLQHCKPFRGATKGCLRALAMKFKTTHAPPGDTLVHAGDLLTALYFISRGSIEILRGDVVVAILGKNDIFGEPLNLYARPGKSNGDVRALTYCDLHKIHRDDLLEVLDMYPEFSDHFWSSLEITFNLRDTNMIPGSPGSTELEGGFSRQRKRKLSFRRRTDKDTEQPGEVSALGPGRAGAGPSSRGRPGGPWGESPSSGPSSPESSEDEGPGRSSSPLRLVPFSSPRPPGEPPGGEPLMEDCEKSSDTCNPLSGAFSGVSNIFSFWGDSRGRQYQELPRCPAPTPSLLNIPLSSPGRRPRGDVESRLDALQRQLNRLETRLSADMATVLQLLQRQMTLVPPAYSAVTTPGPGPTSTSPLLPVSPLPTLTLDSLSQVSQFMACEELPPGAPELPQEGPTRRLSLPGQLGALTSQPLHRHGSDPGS
T2 sequence (Q12809 whole entry): as above

C(#Cc1cccc(C#Cc2ccc(-c3ccccc3)cc2)n1)c1ccc(-c2ccccc2)cc1
Ki [1]: > 100 µM

O=[N+]([O-])c1ccc(CCNCCOc2ccc([N+](=O)[O-])cc2)cc1
Ki [1]: 0.047 µM
Kd [2]: 0.053 µM
kon (Kv11.1 (KCNH2, hERG) [3]; hek293): 90000 M⁻¹ s⁻¹
koff (Kv11.1 (KCNH2, hERG) [4]; hek293): 0.0045 s⁻¹
residence time (Kv11.1 (KCNH2, hERG) [5]; hek293): 3.7 min

COc1cccc(-c2ccc(C#Cc3cccc(C#Cc4ccc(-c5cccc(OC)c5)cc4)[n+]3C)cc2)c1
Ki [1]: 0.176 µM
Kd [2]: 0.125 µM
kon (Kv11.1 (KCNH2, hERG) [3]; hek293): 6170 M⁻¹ s⁻¹
koff (Kv11.1 (KCNH2, hERG) [4]; hek293): 0.000783 s⁻¹
residence time (Kv11.1 (KCNH2, hERG) [5]; hek293): 21 min

C[n+]1c(C#Cc2ccc(-c3ccc(O)cc3)cc2)cccc1C#Cc1ccc(-c2ccc(O)cc2)cc1
Ki [1]: 0.153 µM
Kd [2]: 0.103 µM
kon (Kv11.1 (KCNH2, hERG) [3]; hek293, probe [3H]dofetilide): 8500 M⁻¹ s⁻¹
koff (Kv11.1 (KCNH2, hERG) [4]; hek293, probe [3H]dofetilide): 0.000883 s⁻¹
residence time (Kv11.1 (KCNH2, hERG) [5]; hek293, probe [3H]dofetilide): 19 min

O=C(c1ccccc1)N1CCN(CCc2ccccc2)CC1
Ki [1]: 5.42 µM
Kd [2]: 1.81 µM
kon (Kv11.1 (KCNH2, hERG) [3]; hek293, probe [3H]dofetilide): 4500 M⁻¹ s⁻¹
koff (Kv11.1 (KCNH2, hERG) [4]; hek293, probe [3H]dofetilide): 0.00767 s⁻¹
residence time (Kv11.1 (KCNH2, hERG) [5]; hek293, probe [3H]dofetilide): 2.2 min

CN(CCCCOc1ccc([N+](=O)[O-])cc1)CCc1ccc([N+](=O)[O-])cc1
Ki [1]: 0.0016 µM
Kd [2]: 0.00073 µM
kon (Kv11.1 (KCNH2, hERG) [3]; hek293): 1.07e+07 M⁻¹ s⁻¹
koff (Kv11.1 (KCNH2, hERG) [4]; hek293): 0.00433 s⁻¹
residence time (Kv11.1 (KCNH2, hERG) [5]; hek293): 3.8 min

CCCCCCCc1cccc(CCCCCCC)[n+]1C
Ki [1]: 0.00028 µM
Kd [2]: 0.00044 µM
kon (Kv11.1 (KCNH2, hERG) [3]; hek293, probe [3H]dofetilide): 4.17e+06 M⁻¹ s⁻¹
koff (Kv11.1 (KCNH2, hERG) [4]; hek293, probe [3H]dofetilide): 0.00167 s⁻¹
residence time (Kv11.1 (KCNH2, hERG) [5]; hek293, probe [3H]dofetilide): 10 min

N#CCN(CCOc1ccc([N+](=O)[O-])cc1)CCc1ccc([N+](=O)[O-])cc1
Ki [1]: 0.203 µM
Kd [2]: 0.099 µM
kon (Kv11.1 (KCNH2, hERG) [3]; hek293): 76700 M⁻¹ s⁻¹
koff (Kv11.1 (KCNH2, hERG) [4]; hek293): 0.00667 s⁻¹
residence time (Kv11.1 (KCNH2, hERG) [5]; hek293): 2.5 min

CCCCCCCCc1cccc(CCCCCCCC)n1
Ki [1]: 36.9 µM
Kd [2]: 191 µM
kon (Kv11.1 (KCNH2, hERG) [3]; hek293): 4.67 M⁻¹ s⁻¹
koff (Kv11.1 (KCNH2, hERG) [4]; hek293): 0.000867 s⁻¹
residence time (Kv11.1 (KCNH2, hERG) [5]; hek293): 19 min

CCCCCCCCCCCCc1cccc(CCCCCCCCCCCC)[n+]1C
Ki [1]: 0.108 µM
Kd [2]: 0.153 µM
kon (Kv11.1 (KCNH2, hERG) [3]; hek293, probe [3H]dofetilide): 3000 M⁻¹ s⁻¹
koff (Kv11.1 (KCNH2, hERG) [4]; hek293, probe [3H]dofetilide): 0.000467 s⁻¹
residence time (Kv11.1 (KCNH2, hERG) [5]; hek293, probe [3H]dofetilide): 36 min

Cc1ccccc1-c1ccc(C#Cc2cccc(C#Cc3ccc(-c4ccccc4C)cc3)[n+]2C)cc1
Ki [1]: 0.577 µM
Kd [2]: 0.203 µM
kon (Kv11.1 (KCNH2, hERG) [3]; hek293): 5830 M⁻¹ s⁻¹
koff (Kv11.1 (KCNH2, hERG) [4]; hek293): 0.00118 s⁻¹
residence time (Kv11.1 (KCNH2, hERG) [5]; hek293): 14 min

CC(=O)N(CCOc1ccc([N+](=O)[O-])cc1)CCc1ccc([N+](=O)[O-])cc1
Ki [1]: 0.251 µM
Kd [2]: 0.132 µM
kon (Kv11.1 (KCNH2, hERG) [3]; hek293, probe [3H]dofetilide): 163000 M⁻¹ s⁻¹
koff (Kv11.1 (KCNH2, hERG) [4]; hek293, probe [3H]dofetilide): 0.03 s⁻¹
residence time (Kv11.1 (KCNH2, hERG) [5]; hek293, probe [3H]dofetilide): 0.56 min

CN(CCOc1ccc(Cl)c(Cl)c1)CCc1ccc(Cl)c(Cl)c1
Ki [1]: 5.57 µM
Kd [2]: 5.81 µM
kon (Kv11.1 (KCNH2, hERG) [3]; hek293, probe [3H]dofetilide): 1030 M⁻¹ s⁻¹
koff (Kv11.1 (KCNH2, hERG) [4]; hek293, probe [3H]dofetilide): 0.00317 s⁻¹
residence time (Kv11.1 (KCNH2, hERG) [5]; hek293, probe [3H]dofetilide): 5.3 min

COc1ccc(CCN(C)CCOc2ccccc2)cc1
Ki [1]: 0.944 µM
Kd [2]: 0.591 µM
kon (Kv11.1 (KCNH2, hERG) [3]; hek293, probe [3H]dofetilide): 9330 M⁻¹ s⁻¹
koff (Kv11.1 (KCNH2, hERG) [4]; hek293, probe [3H]dofetilide): 0.005 s⁻¹
residence time (Kv11.1 (KCNH2, hERG) [5]; hek293, probe [3H]dofetilide): 3.3 min

C[n+]1c(C#Cc2ccc(-c3ccccc3)cc2)cccc1C#Cc1ccc(-c2ccccc2)cc1
Ki [1]: 0.086 µM
Kd [2]: 0.132 µM
IC50 [6]: 0.107 µM
kon (Kv11.1 (KCNH2, hERG) [3]; hek293): 1250 M⁻¹ s⁻¹
koff (Kv11.1 (KCNH2, hERG) [4]; hek293): 0.000158 s⁻¹
residence time (Kv11.1 (KCNH2, hERG) [5]; hek293): 105 min

C[N+]1(CCc2ccccc2)CCC(C(=O)c2ccc(Cl)cc2)CC1 (configuration not stated)
Ki [1]: 0.048 µM
Kd [2]: 0.018 µM
kon (Kv11.1 (KCNH2, hERG) [3]; hek293): 800000 M⁻¹ s⁻¹
koff (Kv11.1 (KCNH2, hERG) [4]; hek293): 0.00583 s⁻¹
residence time (Kv11.1 (KCNH2, hERG) [5]; hek293): 2.9 min

CCCCCCCCCc1cccc(CCCCCCCCC)[n+]1C
Ki [1]: 0.0034 µM
Kd [2]: 0.004 µM
kon (Kv11.1 (KCNH2, hERG) [3]; hek293, probe [3H]dofetilide): 300000 M⁻¹ s⁻¹
koff (Kv11.1 (KCNH2, hERG) [4]; hek293, probe [3H]dofetilide): 0.00115 s⁻¹
residence time (Kv11.1 (KCNH2, hERG) [5]; hek293, probe [3H]dofetilide): 14 min

CN(CCOc1ccc([N+](=O)[O-])cc1)CCc1ccc([N+](=O)[O-])cc1
Ki [1]: 0.024 µM
Kd [2]: 0.02 µM
kon (Kv11.1 (KCNH2, hERG) [3]; hek293): 683000 M⁻¹ s⁻¹
koff (Kv11.1 (KCNH2, hERG) [4]; hek293): 0.0137 s⁻¹
residence time (Kv11.1 (KCNH2, hERG) [5]; hek293): 1.2 min

CCCN(CC)CC#Cc1ccc(C)cc1
Ki [1]: 1.2 µM
Kd [2]: 0.637 µM
kon (Kv11.1 (KCNH2, hERG) [3]; hek293, probe [3H]dofetilide): 5170 M⁻¹ s⁻¹
koff (Kv11.1 (KCNH2, hERG) [4]; hek293, probe [3H]dofetilide): 0.0025 s⁻¹
residence time (Kv11.1 (KCNH2, hERG) [5]; hek293, probe [3H]dofetilide): 6.7 min

CCCCCCC[N+](CC)(CC)CC#Cc1ccc(Cl)cc1
Ki [1]: 0.0018 µM
Kd [2]: 0.0012 µM
kon (Kv11.1 (KCNH2, hERG) [3]; hek293): 2.83e+06 M⁻¹ s⁻¹
koff (Kv11.1 (KCNH2, hERG) [4]; hek293): 0.00217 s⁻¹
residence time (Kv11.1 (KCNH2, hERG) [5]; hek293): 7.7 min

CCCCCCc1cccc(CCCCCC)[n+]1C
Ki [1]: 0.012 µM
Kd [2]: 0.012 µM
kon (Kv11.1 (KCNH2, hERG) [3]; hek293): 333000 M⁻¹ s⁻¹
koff (Kv11.1 (KCNH2, hERG) [4]; hek293): 0.00383 s⁻¹
residence time (Kv11.1 (KCNH2, hERG) [5]; hek293): 4.3 min

O=C(N(CCOc1ccc([N+](=O)[O-])cc1)CCc1ccc([N+](=O)[O-])cc1)C(F)(F)F
Ki [1]: 0.355 µM
Kd [2]: 0.247 µM
kon (Kv11.1 (KCNH2, hERG) [3]; hek293): 41700 M⁻¹ s⁻¹
koff (Kv11.1 (KCNH2, hERG) [4]; hek293): 0.0102 s⁻¹
residence time (Kv11.1 (KCNH2, hERG) [5]; hek293): 1.6 min

CCCCCCCCCCC#Cc1cccc(C#CCCCCCCCCCC)[n+]1C
Ki [1]: 1.18 µM
Kd [2]: 4.26 µM
kon (Kv11.1 (KCNH2, hERG) [3]; hek293, probe [3H]dofetilide): 550 M⁻¹ s⁻¹
koff (Kv11.1 (KCNH2, hERG) [4]; hek293, probe [3H]dofetilide): 0.002 s⁻¹
residence time (Kv11.1 (KCNH2, hERG) [5]; hek293, probe [3H]dofetilide): 8.3 min

Cc1ccc(-c2ccc(C#Cc3cccc(C#Cc4ccc(-c5ccc(C)cc5)cc4)[n+]3C)cc2)cc1
Ki [1]: 0.303 µM
Kd [2]: 0.44 µM
kon (Kv11.1 (KCNH2, hERG) [3]; hek293, probe [3H]dofetilide): 1430 M⁻¹ s⁻¹
koff (Kv11.1 (KCNH2, hERG) [4]; hek293, probe [3H]dofetilide): 0.00055 s⁻¹
residence time (Kv11.1 (KCNH2, hERG) [5]; hek293, probe [3H]dofetilide): 30 min

O=C(c1ccc(Cl)cc1)C1CCN(CCc2ccc(Cl)c(Cl)c2)CC1
Ki [1]: 0.054 µM
Kd [2]: 0.036 µM
kon (Kv11.1 (KCNH2, hERG) [3]; hek293): 350000 M⁻¹ s⁻¹
koff (Kv11.1 (KCNH2, hERG) [4]; hek293): 0.0065 s⁻¹
residence time (Kv11.1 (KCNH2, hERG) [5]; hek293): 2.6 min

CCN(CCOc1ccc([N+](=O)[O-])cc1)CCc1ccc([N+](=O)[O-])cc1
Ki [1]: 0.0042 µM
Kd [2]: 0.003 µM
kon (Kv11.1 (KCNH2, hERG) [3]; hek293, probe [3H]dofetilide): 2.5e+06 M⁻¹ s⁻¹
koff (Kv11.1 (KCNH2, hERG) [4]; hek293, probe [3H]dofetilide): 0.00433 s⁻¹
residence time (Kv11.1 (KCNH2, hERG) [5]; hek293, probe [3H]dofetilide): 3.8 min

C[n+]1c(C#Cc2ccc(-c3ccc(Cl)cc3)cc2)cccc1C#Cc1ccc(-c2ccc(Cl)cc2)cc1
Ki [1]: 0.071 µM
Kd [2]: 0.1 µM
kon (Kv11.1 (KCNH2, hERG) [3]; hek293): 2670 M⁻¹ s⁻¹
koff (Kv11.1 (KCNH2, hERG) [4]; hek293): 0.000267 s⁻¹
residence time (Kv11.1 (KCNH2, hERG) [5]; hek293): 63 min

C[n+]1c(C#Cc2ccc(-c3cccc(Cl)c3)cc2)cccc1C#Cc1ccc(-c2cccc(Cl)c2)cc1
Ki [1]: 0.139 µM
Kd [2]: 0.135 µM
kon (Kv11.1 (KCNH2, hERG) [3]; hek293): 1380 M⁻¹ s⁻¹
koff (Kv11.1 (KCNH2, hERG) [4]; hek293): 0.000183 s⁻¹
residence time (Kv11.1 (KCNH2, hERG) [5]; hek293): 91 min

CCCCCCCCCCc1cccc(CCCCCCCCCC)[n+]1C
Ki [1]: 0.017 µM
Kd [2]: 0.037 µM
kon (Kv11.1 (KCNH2, hERG) [3]; hek293): 28300 M⁻¹ s⁻¹
koff (Kv11.1 (KCNH2, hERG) [4]; hek293): 0.00107 s⁻¹
residence time (Kv11.1 (KCNH2, hERG) [5]; hek293): 16 min

C[n+]1c(CCc2ccc(-c3ccccc3)cc2)cccc1CCc1ccc(-c2ccccc2)cc1
Ki [1]: 0.063 µM
Kd [2]: 0.06 µM
kon (Kv11.1 (KCNH2, hERG) [3]; hek293, probe [3H]dofetilide): 26700 M⁻¹ s⁻¹
koff (Kv11.1 (KCNH2, hERG) [4]; hek293, probe [3H]dofetilide): 0.00163 s⁻¹
residence time (Kv11.1 (KCNH2, hERG) [5]; hek293, probe [3H]dofetilide): 10 min

— ChEMBL document CHEMBL3588758, “Structure-Affinity Relationships (SARs) and Structure-Kinetics Relationships (SKRs) of Kv11.1 Blockers” (J Med Chem, 2015)
